Series [1] in a line: C18 reverse phase HPLC elution of fatty acyl peptides (hydrophobicity). Format: physicochemical. How it is done: The fatty acid analog acyl-peptide eluted 7 minutes earlier than the corresponding myristoyl peptide. The free peptide elutes in the void volume (3-5minutes).
This difference was evident when the HPLC elution characteristics of fatty acyl peptides were examined. The elution time of a particular acyl-peptide depends strongly on the peptide sequence as well as on the acyl chain attached to that peptide. For example, the elution times of fatty acyl derivatives of GNAAAARR are (in minutes) decanoic acid, 9; dodecanoic acid, 18; myristic acid, 24; and palmitic acid, 30. Elution times for fatty acyl derivatives of GNAAS[^125 I]YRR are 23 and 28 minutes for C12 and C14 fatty acids, respectively (FIG. 2). […] Such a change could alter the biological activity of myristoyl proteins.
For these Examples, each analog synthesized is characterized by ^1 H and ^13 C NMR as well as mass spectroscopy. The analogs are then characterized kinetically as NMT substrates. Briefly, fatty acid analogs are converted to their CoA esters with Pseudomonas CoA ligase and incubated with the iodinated peptide GNAAS[^125 I]YRR and a source of NMT. […] The radiolabelled peptide is then used at concentrations which will lead to 50% enzyme saturation (i.e., at its Km) for the determination of fatty acid analog kinetic characteristics. Representative analogs with sulfur or oxygen in the backbone of the fatty acid chain serve as good substrates for NMT in vitro and will compete for incorporation of ^3 H labelled myri-state into yeast proteins in vivo. In addition, these analogs differ markedly in hydrophobicity from myri-state as measured both by C18 reverse phase HPLC elution profiles and by 2-octanol/water partition coefficients. The analog CH3 O(CH2)11 COOH, for example, partitions into water 20 fold better than myristate. It is believed that these analogs will be incorporated into mammalian acylproteins in vivo and that their incorporation into these proteins will drastically alter protein processing or targeting. It is further believed that the incorporation of fatty acid analogs of both myristate and palmitate into ester linked and phosphatidyl inositol glycan linked acylproteins will also dramatically alter their properties. Since many viral proteins and oncogenes are acylated, these compounds represent a new class of potential antiviral and antineoplastic agents.

In a further series the test system is wheat germ NMT. The series can be described thus: in vitro myristoylation assay with partially purified wheat germ NMT. Type of series: biochemical. As to conditions: fatty acid or analog at 5 μM, peptide varied; read-out: Km of peptide substrate Gly-Asn-Ala-Ala-Ser-[125I]Tyr-Arg-Arg. How it is done: Myristoyl CoA and fatty acid analog CoA were generated by incubation of the fatty acid or analog with CoA, ATP and CoA ligase. This reaction mixture was added to wheat germ NMT and Gly-Asn-Ala-Ala-Ser- [^125 I]Tyr-Arg-Arg in the presence of 0.03% Triton® X-100. Reaction products were characterized by reverse phase HPLC and gamma counting.
The invention is illustrated in greater detail in the following Examples 1 to 15 by the synthesis and testing of representative compounds of the invention as myristoylating enzyme substrates. Accordingly, the invention is first illustrated in Examples 1 to 5 by the chemical synthesis of a sulfur-containing analog of myristic acid, namely 11-(ethylthio)undecanoicacid, CH3 CH2 --S--(CH2)10 COOH, which is then tested in vitro as a wheat germ NMT substrate. Wheat germ NMT is a protein similar to yeast NMT. The purity and chemical identity of the synthesized compound were examined using ^1 H and ^13 C NMR as well as mass spectroscopy. The assay that was used to characterize the substrate specificity of wheat germ NMT measures the rate of attachment of a radiolabelled fatty acid to an unlabelled peptide. The fatty acid analog synthesized was nonradioactive.
Characterization of Partially Purified Wheat Germ NMT--Assays for NMT activity were performed using a procedure detailed previously by Towler and Glaser, Proc. Natl. Acad. Sci. USA 83, 2812-2816 (1986). Briefly, the in vitro assay measures the transfer of radiolabelled fatty acid from acyl CoA to a synthetic peptide substrate. The acylpeptide product is identified by reverse phase HPLC. Time and enzyme dependence were evaluated by varying the reaction time or the enzyme concentration. […] Fatty acid specificity was examined essentially as described by Towler et al., J. Biol. Chem. 262, 1030-1036 (1987), except that the peptide Gly-Ser-Ser-Lys-Ser-Lys-Pro-Lys rather than Gly-Asn-Ala-Ala-Ala-Ala-Arg-Arg was used to compare palmitate and myristate utilization by wheat germ NMT. This was necessary because of the presence of a large, peptide-independent peak which co-eluted with a palmitoyl-Gly-Asn-Ala-Ala-Ala-Ala-Arg-Arg standard. [^3 H]Palmitate and [^3 H]myristate were used in this comparison. [^14 C]fatty acids were used to compare C-10, C-12 and C-14 chain lengths. Fatty acyl CoA concentrations in these assays were determined by a modification of the method of Hosaka et al., Methods Enzymol. 71, 325-333 (1981).
Characterization of the Fatty Acid Analog--Gly-Asn-Ala-Ala-Ser-[^125 I]Tyr-Arg-Arg as prepared in Example 2, above, was tested in an in vitro myristoylation system which was modified from that used with radiolabelled fatty acids. […] 20-fold more wheat germ NMT (480-fold purified as in Example 3, above) was used for these assays than for assays which employed [^3 H] myristate. […] Double reciprocal plots were generated for the iodinated peptide with both myristic acid and the sulfur analog by altering the peptide concentration in the presence of a constant amount of fatty acid or analog. […] The assays contained 0.03% Triton X-100 to maintain the solubility of the fatty acids.

Series [2] deals with yeast myristoylprotein of Mr 20 kDa. The series can be described thus: competition for [3H]myristate incorporation into yeast acylprotein in vivo. Type of series: cell-based. Conditions: Saccharomyces cerevisiae, 0.75 h, read-out: reduction in incorporation of [3H]myristate into yeast myristoylprotein of Mr 20 kDa. The procedure:
Saccharomyces cerevisiae strain BJ405 [MATα, trpl, prbl, prcl, pep4-3; Hemmings et al., Proc. Natl. Acad. Sci. USA 78, 435-439 (1981)] (previously referred to as JR153) was grown to mid-log phase (OD660 nm =1.0-1.2) in YPD medium (1% yeast extract/2% Bactopeptone/2% Dextrose) at 30° C. in a rotary shaker water bath. Cells were pretreated with Cerulenin at 2 μg/ml for 15 minutes and then incubated for 20-45 minutes with unlabeled myristate, palmitate or fatty acid analog at 100 μM in the presence of either 5 μM [9,10-^3 H(N)]-myristate (22.4 Ci/mmol) or L-[^35 S]methionine (1106 Ci/mmol) at 30 μCi/ml of culture.
Cells were cooled on ice 5 minutes, pelleted at 10,000×g, then broken and extracted by the method of Towler et al., Proc. Natl. Acad. Sci. USA 83, 2812-2816 (1986). Total protein synthesis was assayed by trichloroacetic acid (TCA) precipitation. Proteins were separated by SDS-12% polyacrylamide gel electrophoresis, and [^3 H]fatty acid incorporation into cellular acyl-proteins was assayed by autoradiography followed by laser densitometry.

The structures appear in SMILES notation.

Take `CCCCCCCCCCCCCC(=O)O` [myristic acid, reference compound]: the “Elution Time” value in series [1] (C18 reverse phase HPLC, acyl derivative of GNAAS[125I]YRR, Table 2) was found to be 26 min. Besides, the “elution time of fatty acyl derivative of GNAAAARR” value in series [1] (reverse phase HPLC) is 24 min. The “elution time of fatty acyl derivative of GNAAS[125I]YRR” value in series [1] (reverse phase HPLC, FIG. 2, text) was 28 min. For the same compound, in the series with wheat germ NMT, the Km came to 3 µM. Moreover, the inhibition at 100 µM in series [2] is 75 to 80%.

Usually Km stands for the concentration of substrate that gives half-maximal velocity.
